According to patent publication US6423109B1, “Free flowing fertilizer composition with enhanced deposition/anti drift characteristics” (Adjuvants Unlimited Inc., priority 2000, dated 2002):

Experiment: Gel formation (% +50 mesh gel bound)
Assay type: physicochemical
Settings: tap water at 1% dilution

Q: For N.N.O=S(=O)(O)O [Ammonium Sulfate (AMS), Ammonium Sulfate], which “% +50 mesh gel bound” value is on record?
A: Its value is 0%.
